Measured values as given in patent publication US20110028717A1, “AZAINDOLE DERIVATIVE HAVING PGD2 RECEPTOR ANTAGONISTIC ACTIVITY” (priority 2005, published 2011).

Legend:
DP receptor [1] = molecular target: T1, DP receptor (Homo sapiens, UniProt Q13258); assay: cAMP assay with washed platelets (PGD2-stimulated cAMP, HTRF); assay type: cell-based; conditions: 100 nM PGD2, cAMP by HTRF, read-out: IC50 (50% DP-inhibitory concentration in the cAMP assay)
T1 construct: endogenous in cells; host or cells: washed platelets from peripheral blood of a healthy volunteer
T1 sequence (Q13258 1-359): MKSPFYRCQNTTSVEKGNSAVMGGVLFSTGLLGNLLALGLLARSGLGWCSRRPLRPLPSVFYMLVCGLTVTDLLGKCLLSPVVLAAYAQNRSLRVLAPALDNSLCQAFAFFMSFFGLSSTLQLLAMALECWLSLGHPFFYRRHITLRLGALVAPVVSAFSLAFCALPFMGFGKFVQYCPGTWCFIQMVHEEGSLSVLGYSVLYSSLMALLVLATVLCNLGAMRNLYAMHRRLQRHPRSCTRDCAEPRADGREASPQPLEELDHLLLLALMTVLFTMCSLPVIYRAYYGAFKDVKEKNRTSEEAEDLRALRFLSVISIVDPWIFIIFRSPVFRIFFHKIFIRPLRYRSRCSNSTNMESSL
Experimental: 30 ml of peripheral blood was collected from a healthy volunteer using a syringe containing one ninth amount of 3.8% sodium citrate for diagnosis. After being centrifuged at 180 g for 10 minutes at room temperature, a supernatant was collected and used as Platelet Rich Plasma (PRP). The resulting PRP was washed with wash buffer and centrifuged three times (Washed Platelet: WP) and platelets were counted by a microcell counter. WP was added to a plate in amount of 1.5×10^8/assay and the plate was treated with 3-isobutyl-1-methylxanthin (IBMX; 0.5 mM) for 5 minutes. A reaction was initiated by adding 100 nM of PGD2 5 min after an addition of a test compound. The reaction was terminated with an addition of 1N hydrochloric acid after 2 minutes and the cells were destructed using 12% triton X-100. An amount of cAMP in the supernatant was assayed by Homogeneous […] (HTRF)

Brown Norway (BN) Rats = assay: OVA asthma model of rat (hyperresponsive airway, infiltration of inflammatory cells, mucus secretion); assay type: in vivo; conditions: 10 mg/kg p.o. once a day for three days; for inhibition rate (%) mucus-secretion: mucin in airway lavage fluid vs control group; for inhibition rate (%) infiltration of inflammatory cells: total cell number in bronchoalveolar washings vs control group; for inhibition rate (%) increased hyperresponsive airway: vs control group, AUC of acetylcholine response
Experimental: Brown Norway (BN) Rats were sensitized by i.p. administration of 0.1 mg/mL of ovalbumin (OVA) and 1 mg of aluminum hydroxide gel. A solution of 1% OVA was aerosolized by ultrasonic nebulizer (NE-U 17) and the rats were subjected to inhalation exposure of the aerosol for 30 minutes in an exposing chamber 12, 19, 26 and 33 days after the sensitization. One hour before the 4th exposure of the antigen, compounds of the present invention were administered in a dose of 10 mg/kg p.o. once a day for three days consecutively. In a control group, 0.5% of methyl cellulose was administered in place of the compound of the present invention.
Under pentobarbital anesthesia (80 mg/kg, i.p.), acetylcholine (3.9, 7.8, 15.6, 31.3, 62.5, 125, 250 and 500 μg/kg) was injected to jugular vein of the rats successively from a lower dose at intervals of 5 minutes three days after the fourth exposure to the antigen, and immediate contractile reaction of airways (an increase of insufflation pressure) was measured by a modified method of Konnzett & Rössler. Inhibition rate of increased hyperresponsive airway against the control group was calculated based on area under curve (AUC) obtained from concentration-response curve of acetylcholine.
After the measurement of increased hyperresponsive airway was completed, bronchoalveoli of the rats were washed with 5 mL of saline three times. Total cell number in the washings was counted by a hemacytometer under light microscope, and inhibition rates of infiltration of inflammatory cells against the control group were calculated. Further, muchin in the airway lavage fluid was measured by ELIZA method using jacalin, a muchin-binding lectin, and the inhibition rates of mucus-secretion against the control group were calculated.

DP receptor [2] = molecular target: T1, DP receptor; assay: Receptor binding assay, [3H]-PGD2, platelet membrane; conditions: [3H]-PGD2, human platelet membrane
Experimental: A prepared WP was homogenated and a membrane fraction was collected with high-speed centrifugation. A compound of the present invention or a reference compound A (No. IC-73 in WO 2003/097598) was added to the plate and [^3H]-PGD2 was also added. A platelet membrane, a protein concentration is 2 mg/mL, was added and mixed in the plate, and placed on ice for 2 hours. The reaction solution was transferred to a low protein-adsorptive filter and washed with a wash solution eight times using a cell harvester. After the final washing, water was removed sufficiently, and micoscinti was added. DP inhibitory activity was investigated by measuring [^3H] by using Micro Beta.

Compound	IC50 (DP receptor [1])	inhibition rate (%) mucus-secretion (Brown Norway (BN) Rats)	inhibition rate (%) infiltration of inflammatory cells (Brown Norway (BN) Rats)	inhibition rate (%) increased hyperresponsive airway (Brown Norway (BN) Rats)	Ki (DP receptor [2])
CC(C)Oc1ccc(S(=O)(=O)N2CCC(c3cn(CC(=O)O)c4ncccc34)CC2)cc1 [Compound I-1]	0.58 nM	68%	63%	55%	1 nM
CC[C@@H](C)Oc1ccc(S(=O)(=O)N2CCC(c3cn(CC(=O)O)c4ncccc34)CC2)cc1 [Compound I-6]	0.93 nM	77%	60%	69%	1 nM
CC(C)Oc1ccc(S(=O)(=O)N2CCC(c3cn(CC(=O)O)c4nc(Br)ccc34)CC2)cc1 [Compound I-13]	0.51 nM	44%	62%	58%	0.85 nM
COc1ccc2c(C3CCN(S(=O)(=O)c4ccc(OC(C)C)cc4)CC3)cn(CC(=O)O)c2n1 [Compound I-14]	0.33 nM	88%	68%	84%	0.61 nM
CC(C)Oc1ccc(S(=O)(=O)N2CCC(c3cn(CC(=O)O)c4nc(-c5ccccc5)ccc34)CC2)cc1 [Compound I-16]	0.64 nM				
CC(C)Oc1ccc(S(=O)(=O)N2CCC(c3cn(CC(=O)O)c4nc(-c5ccc(F)cc5)ccc34)CC2)cc1 [Compound I-17]	0.88 nM				0.25 nM
CC(C)Oc1ccc(S(=O)(=O)N2CCC(c3cn(CC(=O)O)c4nc(-c5ccccn5)ccc34)CC2)cc1 [Compound I-19]	2.2 nM				
CC(C)Oc1ccc(S(=O)(=O)N2CCC(c3cn(CC(=O)O)c4nc(-c5nccs5)ccc34)CC2)cc1 [Compound I-20]	0.64 nM				0.48 nM
CC(C)Oc1ccc(S(=O)(=O)N2CCC(c3cn(CC(=O)O)c4nc(NC(=O)OC(C)(C)C)ccc34)CC2)cc1 [Compound I-21]	1.9 nM				0.51 nM
CC(C)Oc1ccc(S(=O)(=O)N2CCC(c3cn(CC(=O)O)c4nc(-c5ccoc5)ccc34)CC2)cc1 [Compound I-25]	1.1 nM				
CC(C)Oc1ccc(S(=O)(=O)N2CCC(c3cn(CC(=O)O)c4nc(-c5ccco5)ccc34)CC2)cc1 [Compound I-26]	1.7 nM				
CCOc1ccc2c(C3CCN(S(=O)(=O)c4ccc(OC(C)C)cc4)CC3)cn(CC(=O)O)c2n1 [Compound I-29]	1.5 nM				
CC(C)Oc1ccc(S(=O)(=O)N2CCC(c3cn(CC(=O)O)c4nc(OCc5ccccc5)ccc34)CC2)cc1 [Compound I-31]	1.7 nM				
